How the values were obtained:
[1] = Metabolic stability in human liver microsomes assessed as half life; assay type: ADME, Microsome; conditions: for half-life: liver microsomes
[2] = molecular target: Human immunodeficiency virus type 1 reverse transcriptase (Human immunodeficiency virus 1, UniProt Q72547); experiment: Inhibition of HIV-1 reverse transcriptase
[3] = Cytotoxicity against African green monkey Vero E6 cells; assay type: toxicity, cell-based, Vero C1008; conditions: chlorocebus sabaeus
SARS-CoV-2 [4] = experiment: Antiviral activity against SARS-CoV-2 2019-nCoV/USA_WA1/2020 infected in African green monkey Vero E6 cells assessed as reduction in viral replication pre-treated with compound for 30 mins followed by viral infection and measured after 48 hrs; assay type: functional, organism-based; conditions: Severe acute respiratory syndrome coronavirus 2, 2019-nCoV/USA_WA1/2020, Vero C1008
SARS-CoV-2 [5] = experiment: Antiviral activity against SARS-CoV-2 2019-nCoV/USA_WA1/2020 infected in human PSC-derived lung epithelial cell assessed as reduction in viral replication pre-treated with compound for 30 mins followed by viral infection and measured after 48 hrs; assay type: functional, organism-based; conditions: Severe acute respiratory syndrome coronavirus 2, 2019-nCoV/USA_WA1/2020, Epithelial cell
SARS-CoV-2 [6] = experiment: Antiviral activity against SARS-CoV-2 2019-nCoV/USA_WA1/2020 infected in human Calu-3 cells assessed as reduction in viral replication pre-treated with compound for 30 mins followed by viral infection and measured after 48 hrs; assay type: functional, organism-based; conditions: Severe acute respiratory syndrome coronavirus 2, 2019-nCoV/USA_WA1/2020, Calu-3
SARS-CoV-2 [7] = experiment: Antiviral activity against SARS-CoV-2 2019-nCoV/USA_WA1/2020 infected in human Caco-2 cells assessed as reduction in viral replication pre-treated with compound for 30 mins followed by viral infection and measured after 48 hrs; assay type: functional, organism-based; conditions: Severe acute respiratory syndrome coronavirus 2, 2019-nCoV/USA_WA1/2020, Caco-2
SARS-CoV-2 [8] = experiment: Antiviral activity against SARS-CoV-2 2019-nCoV/USA_WA1/2020 infected in human Huh7.5 cells assessed as reduction in viral replication pre-treated with compound for 30 mins followed by viral infection and measured after 48 hrs; assay type: functional, organism-based; conditions: Severe acute respiratory syndrome coronavirus 2, 2019-nCoV/USA_WA1/2020, Huh7.5
SARS-CoV-2 [9] = experiment: Antiviral activity against SARS CoV-2 USA-WA1/2020 clinical isolate infected in human Calu-3 cells assessed as reduction in viral infection; assay type: functional, organism-based; conditions: Severe acute respiratory syndrome coronavirus 2, USA-WA1/2020, Calu-3

| SMILES | IC50 [2] | CC50 [3] | half-life [1] | also measured |
| --- | --- | --- | --- | --- |
| CCCCCCCCCCCCCCCCSCCCOP(=O)(O)CO[C@H](C)Cn1cnc2c(N)ncnc21 | 10 nM | 49800 nM | – | t1/2 ([1]; microsomes): 42 min |
| CCCCCCCCCCCCCCCCCCCCOP(=O)(O)CO[C@H](C)Cn1cnc2c(N)ncnc21 | 127 nM | 13200 nM | 49 min | – |
| CCCCCCCCCCCCCCCCCCOC[C@@H](COP(=O)(O)OC[C@H]1O[C@@](C#N)(c2ccc3c(N)ncnn23)[C@H](O)[C@@H]1O)OCc1ccccc1 | – | – | – | EC50 (SARS-CoV-2 [4]): 140 nM; EC50 (SARS-CoV-2 [5]): 150 nM; EC50 (SARS-CoV-2 [6]): 300 nM; EC50 (SARS-CoV-2 [7]): 140 nM; EC50 (SARS-CoV-2 [8]): 300 nM |
| C[C@H](Cn1cnc2c(N)ncnc21)OCP(=O)(O)OCCOCCCCCCCCCCCCCCCC(F)(F)F | 8 nM | > 100000 nM | > 120 min | – |
| CCCCOCCCCCOCCCCCOCCCOP(=O)(O)CO[C@H](C)Cn1cnc2c(N)ncnc21 | 32000 nM | > 100000 nM | – | – |
| CCCCCCCCCCCCCCCCCCOC[C@@H](COP(=O)(O)OC[C@H]1O[C@@](C#N)(c2ccc3c(N)ncnn23)[C@H](O)[C@@H]1O)OCc1ccc(OC)c(F)c1 | – | – | – | EC50 (SARS-CoV-2 [9]): 70 nM |
| C[C@H](Cn1cnc2c(N)ncnc21)OCP(=O)(O)OCCOCCCCCCCCCCCCc1ccc(S(F)(F)(F)(F)F)cc1 | 20 nM | > 100000 nM | > 120 min | – |
| CCCCCCCCCCCCCCOCCCCCOP(=O)(O)CO[C@H](C)Cn1cnc2c(N)ncnc21 | 52 nM | > 100000 nM | 31 min | – |
| C[C@H](Cn1cnc2c(N)ncnc21)OCP(=O)(O)OCCOCCCCCCCCCCCCCC#CC(F)(F)F | 16 nM | > 100000 nM | > 120 min | – |
| CCCCCCCCCCCCCCCCCCOCCOP(=O)(O)CO[C@H](C)Cn1cnc2c(N)ncnc21 | 3 nM | 53800 nM | 105 min | – |
| CCCCCCCCCCCCCCCCCOCCOP(=O)(O)CO[C@H](C)Cn1cnc2c(N)ncnc21 | 3 nM | 69600 nM | 35 min | – |
| C[C@H](Cn1cnc2c(N)ncnc21)OCP(=O)(O)OCCOCCCCCCCCCCCCCCCCC(F)(F)F | 10 nM | 85100 nM | > 120 min | – |
| C[C@H](Cn1cnc2c(N)ncnc21)OCP(=O)(O)OCCOCCCCCCCCCCCCCCC#CC(F)(F)F | 10 nM | > 100000 nM | > 120 min | – |
| CCCCCCCCCCCCCCCCCCOC[C@@H](COP(=O)(O)OC[C@H]1O[C@@](C#N)(c2ccc3c(N)ncnn23)[C@H](O)[C@@H]1O)OCc1ccc(C#N)cc1 | – | – | – | EC50 (SARS-CoV-2 [9]): 43 nM |
| C[C@H](Cn1cnc2c(N)ncnc21)OCP(=O)(O)OCCOCCCCCCCCCCC#Cc1ccc(S(F)(F)(F)(F)F)cc1 | 10 nM | > 100000 nM | > 120 min | – |
| CCCCCCCCCCCCCCCOCCCCOP(=O)(O)CO[C@H](C)Cn1cnc2c(N)ncnc21 | 30 nM | > 100000 nM | 48 min | – |
| CCCCCCCCCCCCCCCCCCOC[C@@H](COP(=O)(O)OC[C@H]1O[C@@](C#N)(c2ccc3c(N)ncnn23)[C@H](O)[C@@H]1O)OCc1cccc(C#N)c1 | – | – | – | EC50 (SARS-CoV-2 [9]): 34 nM |
| CCCCCCCCOCCCCCOCCCCCOP(=O)(O)CO[C@H](C)Cn1cnc2c(N)ncnc21 | 4000 nM | > 100000 nM | 12 min | – |
| C[C@H](Cn1cnc2c(N)ncnc21)OCP(=O)(O)O [TENOFOVIR ANHYDROUS] | 1600 nM | 35400 nM | > 120 min | – |

From ChEMBL document CHEMBL5608175, “Lipid-conjugated nucleoside monophosphate and monophosphonate prodrugs: A versatile drug delivery paradigm” (Eur J Med Chem, 2024)
